# Test results taken from patent US8882853B2, “Environmentally-friendly solvent for washing and dry-cleaning, and laundry composition including the same” (LG Household & Health Care Ltd., priority 2011, dated 2014).
# Like-named read-outs stand apart in the source and are kept apart here.
# Assays:
# [1] = Solubility in water; assay type: physicochemical
# From the text: There has been a limitation in the effectiveness of conventional solvents for dry-cleaning in removing water-based contaminants due to the hydrophobic property thereof. Accordingly, in order to relatively evaluate a cleaning effect on the removal of water-based contaminants, the water-containing capacity of solvents according to the present invention was compared with that of the conventional dry-cleaning solvents.
# [2] = Drying rate of solvent impregnated in standard cotton samples at room temperature; assay type: physicochemical; conditions: dried for 8 hours, room temperature (25° C.), relative humidity of 30%
# Protocol: Each solvent used in Comparative Examples 1 to 7 and Examples 1 to 4 was evaluated for its drying rate at room temperature which is considered an important factor in dry-cleaning. The initial weight (A) of standard cotton samples was each measured. After impregnating each solvent or composition in a certain amount into the cotton samples, the weight (B) of the cotton samples was measured. A difference between weight (B) and weight (A) was calculated to determine the weight of each of the impregnated solvents. Then, the cotton samples in which each solvent was impregnated were dried for 8 hours under conditions of room temperature (25° C.) and a relative humidity of 30%. After drying, the weight of each cotton sample was measured and converted into a percentage relative to the initial impregnation weight to obtain a drying rate for each solvent.
Drying rate (%) [2],SMILES,Solubility (20° C.) ([1]; result in words),Solubility (20° C.) [1]
10.53%,"COCC(O)CO (centres unmarked) [Com. Ex. 5, 3-Methoxy 1,2-propanol]",,
95.29%,"COCC(CO)OC (centres unmarked) [Com. Ex. 6, 2,3-Dimethoxy-1-propanol]",,
90.3%,"CCCC1OCC(CO)O1 (centres unmarked) [Example 4, Glycerol-Butylaldehyde Acetal]",soluble,
100%,"CCC1(C)OCC(CO)O1 (centres unmarked) [Example 2, Glycerol-Methyl Ethyl Ketone Ketal]",soluble,
85.25%,"CC(C)CC1(C)OCC(CO)O1 (centres unmarked) [Example 3, Glycerol-Methyl Isobuthyl Ketone Ketal]",,

SMILES,Drying rate (%) [2],Solubility (20° C.) ([1]; result in words),Solubility (20° C.) [1]
"C[Si]1(C)O[Si](C)(C)O[Si](C)(C)O[Si](C)(C)O[Si](C)(C)O1 [Com. Ex. 4, Decamethyl-cyclopentasiloxane]",100%,Insol-,
"CC1(C)OCC(CO)O1 (centres unmarked) [Example 1, Acetone Glycerol]",100%,soluble,
"ClC(Cl)=C(Cl)Cl [Com. Ex. 2, Perchloroethylene]",100%,,0.015 g/ g/100 mL
"O [Com. Ex. 1, Water]",100%,,
